In ChEMBL document CHEMBL6087451, “Design, Synthesis, and Biological Evaluation of 2-Arylaminopyrimidine Derivatives as Dual Cathepsin L and JAK Inhibitors for the Treatment of Acute Lung Injury” (J Med Chem, 2025) one finds inhibition, viability and Activity data, which are given here for 46 compounds.

The source made the active and inactive calls. The rule behind the calls is not given here.

The subject of data set [1] is HBE. Put plainly: (§1) Anti-inflammatory activity against HBE cells assessed as inhibition of LPS-induced IL-6 level at 5 uM pretreated for 30 mins followed by LPS treatment for 24 hrs by ELISA relative to control. The conditions noted are these: Homo sapiens, time 24.5 hrs. In kind it is functional.
Data set [2] is described as follows: (§2) Anti-inflammatory activity against HBE cells assessed as inhibition of LPS-induced IL-8 level at 5 uM pretreated for 30 mins followed by LPS treatment for 24 hrs by ELISA relative to control. In kind it is functional. The conditions noted are these: Homo sapiens, time 24.5 hrs.
Data set [3] is described as follows: as §1. Type of data set: functional. The settings on record: Homo sapiens, time 24.5 hrs.
The test system of data set [4] is HBE. Described as §2. In kind it is functional. The conditions noted are these: Homo sapiens, time 24.5 hrs.
Data set [5] in a line: Cytotoxicity against HBE cells assessed as cell survival at 10 uM by MTT assay relative to control. In kind it is toxicity, cell-based. The conditions noted are these: human; for viability at 10 µM: HBE cells, read-out: Survival.

Regarding `Cn1cc(-c2ccnc(Nc3ncccn3)n2)c2ccccc21`, the inhibition result in the data set with HBE [1] was “inactive”. Further, the inhibition at 5 µM in data set [2] was found to be 12%.
Regarding `Cn1cc(-c2ccnc(Nc3ccccc3)n2)c2ccccc21`, in data set [3], the inhibition at 5 µM was 85%. For the same compound, the inhibition result with HBE [4] is “inactive”.
As for `Nc1cccc(Nc2nccc(N)n2)c1`, the inhibition entry in the data set on HBE [1] and in the data set on HBE [4] was “inactive” in each case.
Take `Nc1cccc(Nc2nccc(Sc3ccc(Cl)cc3)n2)c1`: the inhibition at 5 µM amounted to 54% in data set [3] and 56% in data set [2].
Take `Cn1cc(-c2ccnc(Nc3ccc(Cl)cc3)n2)c2ccccc21`: the inhibition at 5 µM in data set [3] was determined as 54%; in data set [2], 56%.
For the compound `CN(c1cccc(N)c1)c1nccc(-c2cn(C)c3ccccc23)n1`, the inhibition result with HBE [1] and in the data set on HBE [4] was “inactive” each time.
Regarding `Nc1cccc(Nc2nccc(Nc3cccc(Cl)c3)n2)c1`, the inhibition at 5 µM came to 54% in data set [3] and 56% in data set [2].
Consider `Cn1cc(-c2ccnc(Nc3cccnc3)n2)c2ccccc21`, for which, in data set [5], the viability at 10 µM was < 70%. The inhibition at 5 µM in data set [3] turned out to be 54%; in data set [2], 56%.
In the case of `Cc1ccc(Oc2nccc(-c3cn(C)c4ccccc34)n2)cc1`, the inhibition result in the data set with HBE [1] and in the data set on HBE [4] was “inactive” each time.
With `Nc1cccc(Nc2nccc(Sc3ccc(C(F)(F)F)cc3)n2)c1`, the inhibition at 5 µM in data set [3] is 54%; in data set [2] it was 56%.
Take `Nc1cccc(Nc2nccc(Nc3ccc(Br)cc3)n2)c1`: the results for the inhibition at 5 µM in data set [3] and in data set [2] were 54% and 56%, respectively.
With `Cn1cc(-c2ccnc(Nc3ccccn3)n2)c2ccccc21`, in data set [5], the viability at 10 µM is < 70%. The inhibition at 5 µM in data set [3] worked out at 68%; in data set [2] it was 56%.
Take `CC(C)Nc1nccc(-c2cn(C)c3ccccc23)n1`: the inhibition result in the data set on HBE [1] and in the data set on HBE [4] was “inactive” each time.
For the compound `COc1cccc(Nc2ccnc(Nc3cccc(N)c3)n2)c1`, the inhibition at 5 µM in data set [3] was 54%; in data set [2], 56%.
Consider `COc1ccc(N)cc1Nc1nccc(-c2cn(C)c3ccccc23)n1`, for which the inhibition at 5 µM in data set [3] stood at 64%; in data set [2], 54%.
The like results for `Cn1cc(-c2ccnc(Nc3cccc(CC(=O)O)c3)n2)c2ccccc21` were, in that order, 54% and 56%.
As to `Nc1cccc(Nc2nccc(-c3c[nH]c4ccccc34)n2)c1`, the Activity entry in data set [5] (hbe, 10 µM) is reported as “Toxic”. Further, the inhibition entry in the data set with HBE [1] and with HBE [4] was “Active” each time.
For the compound `Cn1nccc1Nc1nccc(-c2cn(C)c3ccccc23)n1`, the inhibition at 5 µM in data set [3] stood at 54%; in data set [2], 64%.
As to `Cn1cc(-c2ccnc(Nc3ccc(Cl)c(N)c3)n2)c2ccccc21`, the inhibition at 5 µM in data set [3] is 54%; in data set [2], 56%.
For `COc1cccc(Nc2ccnc(Nc3cccc(N)c3)n2)c1OC`, the inhibition at 5 µM in data set [3] came out at 54%; in data set [2], 56%.
`Cn1cc(-c2ccnc(Nc3cccc(O)c3)n2)c2ccccc21`: the results for the inhibition at 5 µM in data set [3] and in data set [2] were 54% and 56%, respectively.
As to `Cc1ccc(Nc2ccnc(Nc3cccc(N)c3)n2)c(C)c1`, the inhibition at 5 µM in data set [3] was 54%; in data set [2], 56%.
The like results for `Cn1cc(-c2ccnc(Nc3ccc(F)cc3)n2)c2ccccc21` were, in that order, 54% and 56%.
For `Nc1cccc(Nc2nccc(Nc3cccc(Br)c3)n2)c1`, in that order: 54% and 56%.
With `Cn1cc(-c2ccnc(Nc3cccc(C#N)c3)n2)c2ccccc21`, the inhibition at 5 µM in data set [3] is 54%; in data set [2], 56%.
Turning to `Cn1cc(-c2ccnc(NC3CCCCC3)n2)c2ccccc21`, the inhibition entry with HBE [1] and with HBE [4] was “inactive” each time.
In the case of `COc1cccc(OC)c1Nc1ccnc(Nc2cccc(N)c2)n1`, the values for the inhibition at 5 µM in data set [3] and in data set [2] were 54% and 56%, respectively.
Consider `Cc1cccc(Nc2ccnc(Nc3cccc(N)c3)n2)c1C`, for which the figures for the inhibition at 5 µM in data set [3] and in data set [2] were 54% and 56%, respectively.
In the case of `COc1cc(OC)cc(Oc2ccnc(Nc3cccc(N)c3)n2)c1`, the inhibition at 5 µM in data set [3] worked out at 54%; in data set [2] it was 56%.
As to `CCCCNc1nccc(-c2cn(C)c3ccccc23)n1`, the viability at 10 µM in data set [5] was < 70%. Besides, the inhibition entry with HBE [1] and in the data set on HBE [4] was “inactive” throughout.
With `Cn1cc(-c2ccnc(Nc3ccc(C(F)(F)F)cc3)n2)c2ccccc21`, the values for the inhibition at 5 µM in data set [3] and in data set [2] were 54% and 56%, respectively.
As to `COc1ccccc1Nc1nccc(-c2cn(C)c3ccccc23)n1`, the inhibition at 5 µM in data set [3] turned out to be 38%. Also, the inhibition entry in the data set with HBE [4] was “inactive”.
Take `Nc1cccc(Nc2nccc(Nc3ccc(Cl)cc3)n2)c1`: the inhibition at 5 µM came out at 54% in data set [3] and 56% in data set [2].
For `Cn1cc(-c2ccnc(NC3CC3)n2)c2ccccc21`, the viability at 10 µM in data set [5] was < 70%. Also, the inhibition entry in the data set with HBE [1] and with HBE [4] was “inactive” in each case.
Consider `Nc1cccc(Nc2nccc(Nc3cccc(F)c3)n2)c1`, for which the results for the inhibition at 5 µM in data set [3] and in data set [2] were 54% and 56%, respectively.
Regarding `Nc1cccc(Nc2nccc(Nc3ccc(C(F)(F)F)cc3)n2)c1`, the figures for the inhibition at 5 µM in data set [3] and in data set [2] were 54% and 56%, respectively.
On to `COc1ccc(Nc2nccc(-c3cn(C)c4ccccc34)n2)cc1`, for which the inhibition at 5 µM amounted to 54% in data set [3] and 56% in data set [2].
In the case of `Nc1cccc(Nc2nccc(Nc3ccc(F)cc3)n2)c1`, the inhibition at 5 µM turned out to be 54% in data set [3] and 56% in data set [2].
On to `Nc1cccc(Nc2nccc(Sc3ccc(F)cc3)n2)c1`, for which the inhibition at 5 µM in data set [3] was 54%; in data set [2], 56%.
On to `Nc1cccc(Nc2nccc(Sc3ccc(Br)cc3)n2)c1`, for which the inhibition at 5 µM in data set [3] is 54%; in data set [2] it was 56%.
The like results for `Cn1cc(-c2ccnc(N)n2)c2ccccc21` were, in that order, 37% and 38%.
The like results for `CC(C)(C)c1ccc(Nc2ccnc(Nc3cccc(N)c3)n2)cc1` were, in that order, 54% and 56%.
The like results for `Cn1cc(-c2ccnc(Nc3ccc(N)cc3)n2)c2ccccc21` were, in that order, 54% and 56%.
On to `N#Cc1cccc(Nc2ccnc(Nc3cccc(N)c3)n2)c1`, for which the inhibition at 5 µM in data set [3] turned out to be 54%; in data set [2], 56%.
Consider `COc1ccc(OC)c(Nc2ccnc(Nc3cccc(N)c3)n2)c1`, for which the inhibition at 5 µM in data set [3] was determined as 54%; in data set [2] it was 56%.
The like results for `Nc1cccc(Nc2nccc(Nc3ccc(F)c(F)c3)n2)c1` were, in that order, 54% and 56%.
